Reference: patent US11524960B2, “Heterobicyclic inhibitors of MAT2A and methods of use for treating cancer” (AGIOS PHARMACEUTICALS, INC., priority 2018, dated 2022)

The compounds below were run against T1, MAT2A homodimer (Homo sapiens, UniProt P31153) (assay: Biochemical assay: inhibition of MAT2A (phosphate release, PiColorLock Gold)). Settings: MAT2A IC50 score; read-out: Enzyme Inhibition (Example 275).
T1 construct: inferred from Ni sepharose purification and imidazole elution; made in house; host or cells: Sf9 insect cells, recombinant baculovirus (Bac to Bac, pFASTBAC1)
Experimental: Mat2A protein was expressed by recombinant baculovirus in SF9 infected cells using the Bac to Bac system cloned into the pFASTBAC1 vector (Invitrogen, Carlsbad, Calif.). Recombinant MAT2A was isolated from the cell lysate of 150 g of infected cells using HP Ni sepharose column chromatography. Recombinant MAT2A homodimer was eluted with 250 and 500 mM imidazole, and fractions containing MAT2A were identified by sodium dodecyl sulfate polyacrylamide gel electrophoresis and pooled.
For determination of the inhibitory potency of compounds against the MAT2A homodimer, protein was diluted to […] in assay buffer (50 mM Tris, pH 8.0, 50 mM KCl, 15 mM MgCl2, 0.3 mM EDTA, 0.005% [w/v] bovine serum albumin [BSA]). Test compound was prepared in 100% dimethyl sulfoxide (DMSO) at 50× the desired final concentration. […] of compound dilution was added to 40 μL of enzyme dilution and the mixture was allowed to equilibrate for 60 minutes at 25° C. The enzymatic assay was initiated by the addition of 10 μL of substrate mix (500 μM ATP, pH 7.0, 400 μM L-methionine in 1× assay buffer), and the mixture was incubated for a further 60 minutes at 25° C. The reaction was halted and the liberated phosphate released by the enzyme in stoichiometric amounts by the production of S-adenosyl methionine (SAM) was measured using the PiColorLock Gold kit (Innova Biosciences, UK). Absolute product amounts were determined by comparison to a standard curve of potassium phosphate buffer, pH 8.0.

T1 sequence (P31153 whole entry): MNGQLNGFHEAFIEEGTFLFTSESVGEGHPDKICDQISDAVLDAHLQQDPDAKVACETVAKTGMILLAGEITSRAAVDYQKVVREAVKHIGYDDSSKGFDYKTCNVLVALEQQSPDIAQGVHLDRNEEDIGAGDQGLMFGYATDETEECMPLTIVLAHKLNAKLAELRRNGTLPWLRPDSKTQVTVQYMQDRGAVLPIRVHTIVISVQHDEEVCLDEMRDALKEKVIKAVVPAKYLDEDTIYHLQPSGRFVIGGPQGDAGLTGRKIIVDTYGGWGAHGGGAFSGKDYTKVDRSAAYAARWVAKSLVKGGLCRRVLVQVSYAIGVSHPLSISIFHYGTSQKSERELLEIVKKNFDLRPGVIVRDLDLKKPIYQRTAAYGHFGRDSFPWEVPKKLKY

IC50, 0.1 to 1 µM:
COc1ccc(N2Cc3cnc(NCC4CC4)nc3C3(CCN(Cc4cscn4)C3)C2=O)cc1 (centres unmarked) [Example 103, 2-((cyclopropylmethyl)amino)-6-(4-methoxyphenyl)-1′-(thiazol-4-ylmethyl)-5H-spiro[pyrido[4,3-d]pyrimidine-8,3′-pyrrolidin]-7(6H)-one]
COc1ccc(-c2c(=O)n(-c3ccc(=O)n(C)c3)cc3cnc(NCC(F)(F)F)nc23)cc1 [Example 194, 8-(4-methoxyphenyl)-6-(1-methyl-6-oxo-1,6-dihydropyridin-3-yl)-2-((2,2,2-trifluoroethyl)amino)pyrido[4,3-d]pyrimidin-7(6H)-one]
COc1ccc(N2Cc3cnc(OCC4CC4)nc3C3(CCN(Cc4ccn[nH]4)C3)C2=O)cc1 (centres unmarked) [Example 114, 1′-((1H-pyrazol-3-yl)methyl)-2-(cyclopropylmethoxy)-6-(4-methoxyphenyl)-5H-spiro[pyrido[4,3-d]pyrimidine-8,3′-pyrrolidin]-7(6H)-one]
COc1ccc(-c2c(=O)n(-c3ccc4ncncc4c3)cc3cnc(NCC(F)(F)F)nc23)cc1 [Example 146, 8-(4-methoxyphenyl)-6-(quinazolin-6-yl)-2-((2,2,2-trifluoroethyl)amino)pyrido[4,3-d]pyrimidin-7(6H)-one]
COc1ccc(N2Cc3cnc(NCC(F)(F)F)nc3C3(CCN(Cc4cc[nH]n4)C3)C2=O)cc1 (centres unmarked) [Example 110]
COc1ccc(N2Cc3cnc(SCC4CC4)nc3C3(CCN(Cc4cc[nH]n4)C3)C2=O)cc1 (centres unmarked) [Example 115, 1′-((1H-pyrazol-3-yl)methyl)-2-((cyclopropylmethyl)thio)-6-(4-methoxyphenyl)-5H-spiro[pyrido[4,3-d]pyrimidine-8,3′-pyrrolidin]-7(6H)-one]
COc1ccc(-n2cc3cnc(NCC(F)(F)F)nc3c(-c3ccc(C(F)(F)F)cc3)c2=O)cc1 [Example 197, 6-(4-methoxyphenyl)-2-((2,2,2-trifluoroethyl)amino)-8-(4-(trifluoromethyl)phenyl)pyrido[4,3-d]pyrimidin-7(6H)-one]
COc1ccc(N2Cc3cnc(NC4CCC4)nc3C3(CCN(Cc4cc[nH]n4)C3)C2=O)cc1 (centres unmarked) [Example 112, 1′-((1H-pyrazol-3-yl)methyl)-2-(cyclobutylamino)-6-(4-methoxyphenyl)-5H-spiro[pyrido[4,3-d]pyrimidine-8,3′-pyrrolidin]-7(6H)-one]
COc1ccc(-c2c(=O)n(-c3ccncc3)cc3cnc(NCC(F)(F)F)nc23)cc1 [Example 176, 8-(4-methoxyphenyl)-6-(pyridin-4-yl)-2-((2,2,2-trifluoroethyl)amino)pyrido[4,3-d]pyrimidin-7(6H)-one]
COc1ccc(N2Cc3cnc(NCC(C)C)nc3C3(CCN(Cc4cc[nH]n4)C3)C2=O)cc1 (centres unmarked) [Example 113, 1′-((1H-pyrazol-3-yl)methyl)-2-(isobutylamino)-6-(4-methoxyphenyl)-5H-spiro[pyrido[4,3-d]pyrimidine-8,3′-pyrrolidin]-7(6H)-one]

IC50, < 0.1 µM:
Cn1cc2cc(-n3cc4cnc(NC5CC5)nc4c(-c4ccc(Cl)cc4)c3=O)ccc2n1 [Example 173, 8-(4-chlorophenyl)-2-(cyclopropylamino)-6-(2-methyl-2H-indazol-5-yl)pyrido[4,3-d]pyrimidin-7(6H)-one]
CCOc1ncc2cn(-c3ccc4ncccc4c3)c(=O)c(-c3ccc(OC(F)F)cc3)c2n1 [Example 271, 8-(4-(difluoromethoxy)phenyl)-2-ethoxy-6-(quinolin-6-yl)pyrido[4,3-d]pyrimidin-7(6H)-one]
COCc1ccc2cn(-c3ccc4nn(C)cc4c3)c(=O)c(-c3ccc(Cl)cc3)c2n1 [Example 136-A, 8-(4-chlorophenyl)-2-(methoxymethyl)-6-(2-methyl-2H-indazol-5-yl)-1,6-naphthyridin-7(6H)-one]
COc1ccc(-n2cc3cnc(OCC(F)(F)F)nc3c(-c3ccc(Br)cc3)c2=O)cc1 [Example 261, 8-(4-bromophenyl)-6-(4-methoxyphenyl)-2-(2,2,2-trifluoroethoxy)pyrido[4,3-d]pyrimidin-7(6H)-one]
COc1ccc(-c2c(=O)n(-c3cn[nH]c3)cc3cnc(NCC(F)(F)F)nc23)cc1 [Example 208, 8-(4-methoxyphenyl)-6-(H-pyrazol-4-yl)-2-((2,2,2-trifluoroethyl)amino)pyrido[4,3-d]pyrimidin-7(6H)-one]
COc1ccc(-n2cc3ccc(NCC(F)(F)F)nc3c(-c3ccc(Cl)cc3)c2=O)cc1 [Example 238, 8-(4-chlorophenyl)-6-(4-methoxyphenyl)-2-(2,2,2-trifluoroethylamino)-1,6-naphthyridin-7(6H)-one]
Cc1nc2cc(-n3cc4cnc(NCC(F)(F)F)nc4c(-c4ccc(OC(F)F)cc4)c3=O)ccc2o1 [Example 149, 8-(4-(difluoromethoxy)phenyl)-6-(2-methylbenzo[d]oxazol-5-yl)-2-((2,2,2-trifluoroethyl)amino)pyrido[4,3-d]pyrimidin-7(6H)-one]
Cn1cc2cc(-n3cc4ccc(NCC(F)(F)F)nc4c(-c4ccc(CC(F)F)cc4)c3=O)ccc2n1 [Example 214, 8-(4-(2,2-difluoroethyl)phenyl)-6-(2-methyl-2H-indazol-5-yl)-2-((2,2,2-trifluoroethyl)amino)-1,6-naphthyridin-7(6H)-one]
Cn1cc2cc(-n3cc4cnc(NCC(F)F)nc4c(-c4ccc(OC(F)F)cc4)c3=O)ccc2n1 [Example 175, 2-((2,2-difluoroethyl)amino)-8-(4-(difluoromethoxy)phenyl)-6-(2-methyl-2H-indazol-5-yl)pyrido[4,3-d]pyrimidin-7(6H)-one]
O=c1c(-c2ccc(C3CC3)cc2)c2nc(OCC(F)(F)F)ncc2cn1-c1ccc2ncccc2c1 [Example 267, 8-(4-cyclopropylphenyl)-6-(quinolin-6-yl)-2-(2,2,2-trifluoroethoxy)pyrido[4,3-d]pyrimidin-7(6H)-one]
O=c1c(-c2ccc(OC(F)F)cc2)c2nc(SCC(F)(F)F)ncc2cn1-c1ccc2ncccc2c1 [Example 274, 8-(4-(difluoromethoxy)phenyl)-6-(quinolin-6-yl)-2-(2,2,2-trifluoroethylthio)pyrido[4,3-d]pyrimidin-7(6H)-one]
O=c1c(-c2ccc(C3CC3)cc2)c2nc(NCC(F)(F)F)ncc2cn1-c1ccc2nccn2c1 [Example 165, 8-(4-cyclopropylphenyl)-6-(imidazo[1,2-a]pyridin-6-yl)-2-((2,2,2-trifluoroethyl)amino)pyrido[4,3-d]pyrimidin-7(6)-one]
CCCNc1ncc2cn(-c3ccc(OC)cc3)c(=O)c(-c3ccc(Br)cc3)c2n1 [Example 191, 8-(4-bromophenyl)-6-(4-methoxyphenyl)-2-(propylamino)pyrido[4,3-d]pyrimidin-7(6H)-one]
O=c1c(-c2ccc(Cl)cc2)c2nc(NCC(F)(F)F)ncc2cn1-c1ccc2nccn2c1 [Example 134, 8-(4-chlorophenyl)-6-(imidazo[1,2-a]pyridin-6-yl)-2-(2,2,2-trifluoroethylamino)pyrido[4,3-d]pyrimidin-7(6H)-one]

IC50, 1 to 10 µM:
Cn1cc2cc(-n3cc4cnc(NCC(F)(F)F)nc4c(-c4ccc(Cl)cc4)c3=O)cnc2n1 [Example 126, 8-(4-chlorophenyl)-6-(2-methyl-2H-pyrazolo[3,4-b]pyridin-5-yl)-2-((2,2,2-trifluoroethyl)amino)pyrido[4,3-d]pyrimidin-7(6H)-one]
COc1ccc(CN2Cc3cnc(NCC4CC4)nc3C3(CCN(Cc4ccccc4)C3)C2=O)cc1 (centres unmarked) [Example 118, 1′-benzyl-2-((cyclopropylmethyl)amino)-6-(4-methoxybenzyl)-5,6-dihydro-7H-spiro[pyrido[4,3-d]pyrimidine-8,3′-pyrrolidin]-7-one]
O=C1N(c2cnoc2)Cc2cnc(NCC3CC3)nc2C12CCN(Cc1n[nH]cc1Cl)C2 (centres unmarked) [Example 108, 1′-((4-chloro-1H-pyrazol-3-yl)methyl)-2-((cyclopropylmethyl)amino)-6-(isoxazol-4-yl)-5H-spiro[pyrido[4,3-d]pyrimidine-8,3′-pyrrolidin]-7(6H)-one]
COC(=O)C1CC(N2CCC3(C2)C(=O)N(c2ccc(OC)cc2)Cc2cnc(NCC4CC4)nc23)C1 (centres unmarked) [Example 105, methyl 3-(2-((cyclopropylmethyl)amino)-6-(4-methoxyphenyl)-7-oxo-6,7-dihydro-5H-spiro[pyrido[4,3-d]pyrimidine-8,3′-pyrrolidin]-1′-yl)cyclobutanecarboxylate]
COc1cc(CN2Cc3cnc(NCC4CC4)nc3C3(CCN(Cc4ccccc4F)C3)C2=O)ccn1 (centres unmarked) [Example 119, 2-((cyclopropylmethyl)amino)-1′-(2-fluorobenzyl)-6-((2-methoxypyridin-4-yl)methyl)-5,6-dihydro-7H-spiro[pyrido[4,3-d]pyrimidine-8,3′-pyrrolidin]-7-one]
